Experimental data: publication PMC12645191, “Dicarboxylate and dicarboxylic acid appended supramolecular self-associating amphiphiles as antimicrobial agents against high priority bacterial pathogens” (Organic & Biomolecular Chemistry, 2025)
Converted amounts (≈) assume the structure as drawn. “And” between values parts separate entries of the source, which are not always exact repeats. Equal values may be shown once. One block for each compound: values may come before it.

Experiments:
[1] = quantitative (Q) 1H NMR spectroscopy, proportion of SSA becoming NMR silent (higher-order aggregates); assay type: physicochemical; details: for (Q) 1H NMR spectroscopy, proportion NMR silent, acid or anion / (Q) 1H NMR spectroscopy, proportion NMR silent, cation: 5.6 mM, D2O 5.0% EtOH, 298 K
Protocol: To confirm the presence of higher order self-associative structures quantitative (Q) ^1H NMR spectroscopy studies were undertaken at 5.6 mM in D2O 5% EtOH. Here the ^1H NMR resonances attributed to the EtOH are used as an internal standard.
Table S1 – Overview of results of the quantitative (Q) 1H NMR studies for 1, 3, 5, 7 and 9
5.0 % EtOH . Values given in % represent the observed proportion of the SSA that has become
Table S2 – Overview of results of the quantitative (Q) 1H NMR studies for 2, 4, 6, 8 and 10
5.0 % EtOH. Values given in % represent the observed proportion of anion and cation that has

[2] = tensiometry: critical aggregate concentration (CAC) and surface tension; assay type: physicochemical; details: for Surface tension at CAC: H2O/5.0 % EtOH
Protocol: As the (Q) ^1H NMR spectroscopy experiments conducted at 5.6 mM in a D2O 5.0% EtOH solution confirmed the presence of higher-order self-associated structures with solid-like properties, concentration dependent surface tension measurements, obtained through tensiometry, were used to calculate critical aggregate concentration (CAC). Here the CAC is defined as the point at which an increase in SSA concentration no longer decreases surface tension but instead results in the formation of higher-order self-associated structures.

[3] = dynamic light scattering (DLS) of SSA aggregates; assay type: physicochemical; details: 5.6 mM, H2O 5.0% EtOH, 298 K
Protocol: Dynamic light scattering (DLS) and zeta potential measurements in H2O 5.0% EtOH were used to determine the hydrodynamic diameter (dH) and stability of the higher-order SSA aggregates detected by (Q) ^1H NMR spectroscopy at 5.6 mM, Table 1. […] However, we are unable to confidently report a dH for 1 due to the instability of this system, which is supported by a zeta potential value of −26 mV, obtained for this SSA under the same experimental conditions. […] Due to the instability of these systems in the absence of solvent, attempts to further characterise these systems through SEM or AFM are not possible.[48]

P. aeruginosa PAO1 = test: inhibition of bacterial growth, OD600 after 20 h; assay type: cell-based, Pseudomonas aeruginosa; details: SSA 5.0 mM, 2.5% ethanol, negative = enhanced growth
Protocol: (§1) With the self-associative properties of 1–10 established, the antimicrobial activity of these SSAs were determined against a panel of clinically relevant, high-priority pathogens including: P. aeruginosa PAO1; Klebsiella pneumonia (K. pneumoniae) M6; E. coli NCTC 12923; Acinetobacter baumannii (A. baumannii) ATCC 17978; S. aureus ATCC 9144; Enterococcus faecalis (E. faecalis) NCTC 775; and Enterococcus faecium (E. faecium) NCTC 12204. […] However, it should be noted that the SSA stock solution was prepared in a H2O 5% EtOH solution, to ensure that the SSA aggregates formed were in line with those characterised within the scope of the SSA self-association studies.
(§2) Section 3: Biological methods
(§3) These methods were taken directly from UK Health and Security Office (UKHSA) standard […]
(§4) Preparation of Luria Broth media (LB): Yeast extract (5.0 g), tryptone (10.0 g) and sodium chloride (10.0 g) were dissolved in dH₂O (1.0 L) then divided into bottles and autoclaved.
(§5) Preparation of Luria Broth (LB) agar plates: Agar (6.0 g) was added to LB (400 mL) and autoclaved. Once cool, the LB agar was poured into sterile petri dishes under sterile conditions and allowed to set. LB plates were stored at 4 °C until use.
(§6) Preparation of bacterial plates: Sterile LB agar plates were streaked using streaked using the desired bacteria i) Pseudomonas aeruginosa (P.aeruginosa) PAO1, ii) Klebsiella pneumoniae (K. pneumoniae) M6 iii) E. coli NCTC 12923 and iv) Acinetobacter baumannii (A. baumannii) ATCC 17978 and Gram-positive i) Staphylococcus aureus (S. aureus) ATCC 9144 ii) Enterococcus faecalis (E. faecalis) NCTC 775 and iii) Enterococcus faecium (E. faecium ) NCTC 12204, then incubated at 37 °C overnight.
(§7) Preparation of Inoculum: An initial culture was made up by inoculating LB media (5 mL) with a single colony of bacteria under sterile conditions and incubated at 37 °C with shaking overnight. The following day, overnight bacterial cultures were subcultured into fresh LB medium to a starting OD600 of 0.01.
(§8) Preparation of 96 well microplate for MIC50: The 1:100 cell suspension (150 µL) was dispensed into individual wells under sterile conditions. SSAs (30 µL) were added to the wells to equal a total volume of 180 µL in the wells. Six repeats of each concentration for each SSA were created each plate. The plates were sealed using parafilm, then incubated at 37 °C in a microplate reader for 20 hours. OD600 endpoint data was used to generate growth curves. […]

K. pneumoniae M6 = test: inhibition of bacterial growth, OD600 after 20 h; assay type: cell-based, Klebsiella pneumoniae; details: SSA 5.0 mM, 2.5% ethanol, negative = enhanced growth
Protocol: as §1, §2, §3, §4, §5, §6, §7, §8

E. coli NCTC 12923 = test: inhibition of bacterial growth, OD600 after 20 h; assay type: cell-based, Escherichia coli; details: SSA 5.0 mM, 2.5% ethanol, negative = enhanced growth
Protocol: as §1, §2, §3, §4, §5, §6, §7, §8

A. baumannii ATCC 17978 = test: inhibition of bacterial growth, OD600 after 20 h; assay type: cell-based, Acinetobacter baumannii; details: SSA 5.0 mM, 2.5% ethanol, negative = enhanced growth
Protocol: as §1, §2, §3, §4, §5, §6, §7, §8

S. aureus ATCC 9144 = test: inhibition of bacterial growth, OD600 after 20 h; assay type: cell-based, Staphylococcus aureus; details: SSA 5.0 mM, 2.5% ethanol, negative = enhanced growth
Protocol: as §1, §2, §3, §4, §5, §6, §7, §8

E. faecalis NCTC 775 = test: inhibition of bacterial growth, OD600 after 20 h; assay type: cell-based, Enterococcus faecalis; details: SSA 5.0 mM, 2.5% ethanol, negative = enhanced growth
Protocol: as §1, §2, §3, §4, §5, §6, §7, §8

E. faecium NCTC 12204 = test: inhibition of bacterial growth, OD600 after 20 h; assay type: cell-based, Enterococcus faecium; details: SSA 5.0 mM, 2.5% ethanol, negative = enhanced growth
Protocol: as §1, §2, §3, §4, §5, §6, §7, §8

[4] = test system: all Gram-positive bacteria tested; test: inhibition of bacterial growth, span over the Gram-positive panel; assay type: cell-based, S. aureus, E. faecalis, E. faecium; details: SSA 5.0 mM, 20 hours; read-out: inhibition against all Gram-positive bacteria tested (span)
Protocol: as §1, §2, §3, §4
Preparation of Luria Broth (LB) agar plates: Agar (6.0 g) was added to LB (400 mL) and autoclaved. […]
Preparation of 96 well microplate for MIC50: The 1:100 cell suspension (150 µL) was dispensed into individual wells under sterile conditions. […] The plates were sealed using parafilm, then incubated at 37 °C in a microplate reader for 20 hours. […]

[5] = kinetic solubility determination in PBS pH 7.4; details: pH 7.4, aqueous buffer, kinetic from dmso stock
[6] = H2O 5.0% EtOH, 298 K, listed as 4

(Q) 1H NMR spectroscopy, proportion NMR silent, acid or anion [1]: 47%
(Q) 1H NMR spectroscopy, proportion NMR silent, cation [1]: 41.8% and 42%
(Q) 1H NMR, proportion NMR silent, cation ([1]; ~112 mM, DMSO-d6 1.0% DCM): 0%
ST at CAC ([2]; H2O 5.0% EtOH, 298 K, listed as 8): 52 mN m^−1
Surface tension at CAC ([2]; listed as 8): 51.98 mN/m
DLS Peak 2 maxima ([3]; listed as 8): 3417 nm
Polydispersity index (%) ([3]; listed as 8): 25.6 (± 1.0) %
dH (DLS intensity distribution peak 1 maxima) ([3]; listed as 8): 313 nm
SMILES: COc1ccc(NC(=O)N[C@@H](CC(=O)O)C(=O)O)cc1 [SSA 8]
Percentage inhibition of bacterial growth, PAO1 (P. aeruginosa) (P. aeruginosa PAO1; listed as 8): 37.24% and 37%
Percentage inhibition of bacterial growth, M6 (K. pneumoniae) (K. pneumoniae M6; listed as 8): 9.69% and 10%
Percentage inhibition of bacterial growth, NCTC 12923 (E. coli) (E. coli NCTC 12923; listed as 8): 39.33% and 39%
Percentage inhibition of bacterial growth, ATCC 17978 (A. baumannii) (A. baumannii ATCC 17978; listed as 8): -20.26% and −20%
Percentage inhibition of bacterial growth, ATCC 9144 (S. aureus) (S. aureus ATCC 9144; listed as 8): 96.79% and 97%
Percentage inhibition of bacterial growth, NCTC 775 (E. faecalis) (E. faecalis NCTC 775; listed as 8): 38.33% and 38%
Percentage inhibition of bacterial growth, NCTC 12204 (E. faecium) (E. faecium NCTC 12204; listed as 8): -1.33% and −1%

(Q) 1H NMR spectroscopy, proportion NMR silent, acid or anion ([1]; listed as 4): 41%
(Q) 1H NMR spectroscopy, proportion NMR silent, cation ([1]; listed as 4): 43.2% and 43%
(Q) 1H NMR, proportion NMR silent, SSA acid or anion ([1]; ~112 mM, DMSO-d6 1.0% DCM): 0%
(Q) 1H NMR, proportion NMR silent, cation ([1]; ~112 mM, DMSO-d6 1.0% DCM): 0%
CAC [2, 6]: 22.26 mM and 22 mM
ST at CAC [2, 6]: 38 mN m^−1
Surface tension at CAC ([2]; listed as 4): 38.35 mN/m
DLS Peak 2 maxima ([3]; listed as 4): 5118 nm
Polydispersity index (%) ([3]; listed as 4): 27.4 (± 0.8) %
dH (DLS intensity distribution peak 1 maxima) ([3]; listed as 4): 255 nm
SMILES: O=C(O)CC[C@@H](NC(=O)Nc1ccc(C(F)(F)F)cc1)C(=O)O [SSA 4]
Percentage inhibition of bacterial growth, PAO1 (P. aeruginosa) (P. aeruginosa PAO1; listed as 4): 10.30% and 10%
Percentage inhibition of bacterial growth, M6 (K. pneumoniae) (K. pneumoniae M6; listed as 4): 19.93% and 20%
Percentage inhibition of bacterial growth, NCTC 12923 (E. coli) (E. coli NCTC 12923; listed as 4): 39.02% and 39%
Percentage inhibition of bacterial growth, ATCC 17978 (A. baumannii) (A. baumannii ATCC 17978; listed as 4): -20.93% and −21%
Percentage inhibition of bacterial growth, ATCC 9144 (S. aureus) (S. aureus ATCC 9144; listed as 4): 98.85% and 99%
Percentage inhibition of bacterial growth, NCTC 775 (E. faecalis) (E. faecalis NCTC 775; listed as 4): 98.82% and 99%
Percentage inhibition of bacterial growth, NCTC 12204 (E. faecium) (E. faecium NCTC 12204; listed as 4): 99.74% and 100%
inhibition at 5000 µM [4]: 99 to 100%

SMILES: CC(=O)[C@H]1CC[C@H]2[C@@H]3CCC4=CC(=O)CC[C@]4(C)[C@H]3CC[C@]12C [Progesterone, reference compound]
solubility [5]: 14.5 µM (≈ 4.57 µg/mL)
